Columns and labels:
[1] = target: T1, Wild Type ALK kinase (Homo sapiens, UniProt Q9UM73); assay: HTRF KinEASE-TK assay, inhibitory activity on wild type ALK kinase; format: biochemical; conditions: wild type ALK 1 ng/μl, substrate 1 μM, 30° C. 35 minutes, read-out: Inhibition on ALK kinases (wildtype), IC50
T1 construct: purchased Sino-US Crown Bioscience, Inc. batch number ALK 20110607
Text: 1. Inhibitory Activities of the Compounds of the Present Invention on Wild Type ALK Kinases
? experimental method ? HTRF KinEASE™-TK Assay kit from Cisbio company was used to detect inhibitory activities of the compounds on wildtype ALK kinases (wild type ALK kinases).
(§1) ? instrument ? Envision 2104 plate reader from PerKinElmer company.
(§2) ? experiment material ? HTRF KinEASE™-TK Assay Kit (Cisbio company, catalog No. 62TK0PEC); Wild Type ALK kinase (produced by Sino-US Crown Bioscience, Inc., batch number ALK 20110607); DTT (Gibco BRL company, catalog No. 15508-012); MgCl2 (Sigma Aldrich company, catalog No. M-2670); ATP (Sigma Aldrich company, catalog No. A-7699); DMSO (AMRESCO company, catalog No. 0231); EDTA (AMRESCO company, catalog No. 0105); 96 wells plates (for diluting compounds) (CITOTEST company, catalog No. Ref36020096D); OptiPlate™-384 (White), PerkinElmer company, catalog No. P12-004)
(§3) ? experimental condition ? Compounds (the final concentration of DMSO was 1%), the reaction substrate (the final concentration was 1 μM), ATP (the final concentration was 2004), and Wildtype ALK kinases (the final concentration was 1 ng/μl) were mixed respectively in a final volume of 10 μl reaction system (containing 5 mM MgCl2, 1× Kinase buffer, and 1 mM DTT). The mixture was reacted at 30° C. for 35 minutes after shaking for 30 seconds. After completion of the reaction, each well was added with 5 μl Sa-XL665 and 5 μl TK Antibody-Eu(K), and placed in the dark for 60 minutes to end the reaction after uniform mixing. The data was read from PerkinElmer EnVision plate reader ([…]), the 665/615 ratio was calculated, and the data was analyzed.
(§4) ? tested samples ? Compounds from the examples.
(§5) ? data analysis ? Minimum 665/615 ratio (Rmin, 665/615 ratio under the condition that 10.4 μM positive control drug LDK-378 was added)
(§6) Maximum 665/615 ratio (Rmax, 665/615 ratio under the condition that no compound was added)
(§7) Tested 665/615 ratio (Rcompound, 665/615 ratio under the condition that a given concentration of compound was added) Inhibition rate (%)=[1−(Rcompound−Rmin)/(Rmax−Rmin)]×100
(§8) ? data processing ? IC50 of compounds was calculated by using XLfit program in Excel.

[2] = target: T2, L1196M mutant ALK kinase (Homo sapiens, UniProt Q9UM73, L1196M); assay: HTRF KinEASE-TK assay, inhibitory activity on L1196M mutant ALK kinase; format: biochemical; conditions: L1196M mutant ALK 1 ng/μl, substrate 1 μM, ATP 5 μM, 30° C. 35 minutes, read-out: Inhibition on ALK kinases (L1196M mutant), IC50
T2 construct: purchased Sino-US Crown Bioscience, Inc. batch number ALKm_20110923
Text: 2. Inhibitory Activities of the Compounds of the Present Invention on L1196M Mutant ALK Kinases
? experimental method ? HTRF KinEASE™-TK Assay kit from Cisbio company was used to detect inhibitory activities of the compounds on L1196M mutant ALK kinases.
as §1
as §2, with “L1196M mutant” for “Wild Type”, “ALKm_20110923);” for “ALK 20110607);”, “A-7699, batch number 051M7014V);” for “A-7699);”
as §3, with “5 μM),” for “2004),”, “L1196M mutant” for “Wildtype”
as §4, §5, §6, §7, §8

[3] = system: NCI-H2228 cell line; assay: CellTiter-Glo cell proliferation inhibition on NCI-H2228 cell line; format: cell-based; conditions: Homo sapiens, NCI-H2228, 96 h, NCI-H2228 cells, 5000 cells/well, 4 days drug treatment
Experimental: 3. Cell Proliferation Inhibitory Activities of the Compounds of the Present Invention on NCI-H2228 Cell Line
? experimental method ? CellTiter-Glo® Luminescent Cell Viability Assay kit from Promega company was used to detect cell proliferation inhibitory activities of the compounds on NCI-H2228 cell line.
? instrument ? Envision 2104 plate reader from PerKinElmer company; Vi-Cell XR cell counter from Beckman Counter company; MCO-18AIC CO2 incubator from SANYO company.
? experiment material ? CellTiter-Glo® Luminescent Cell Viability Assay Kit (Promega company, catalog No. G7573); NCI-H2228 cell line (ATCC, catalog No. CRL-5935); RPMI-1640 medium (HyClone company, catalog No. SH30809.01B); fetal bovine serum (FBS) (Gibco company, catalog No. 10099-141); trypsin (Trypsin) (Gibco company, catalog No. 25200-072); PBS (HyClone company, catalog No. SH30256.01B); 96 wells cell culture plate (Corning company, catalog No. 3610); DMSO (AMRESCO company, catalog No. 0231); 96 wells plates (for diluting compounds) (CITOTEST company, catalog No. Ref36020096D);
? experimental condition ? NCI-H2228 cells in exponential growth phase were collected and treated with trypsin (Trypsin), and viable cells were counted by Vi-Cell XR cell counter. Cell suspension was adjusted to 62500 cells/ml with culture medium (RPMI-1640+10% FBS). 80 μl cell suspension was added into each well of 96 wells cell culture plate so that the final cell number of NCI-H2228 cells was 5000 cells/well. The cells were cultivated in an incubator with an atmosphere of 37° C., 5% CO2 and 95% humidity for 2 hours and then each well was added with 20 μl compounds in RPMI-1640 medium solution (the final concentration of DMSO was 0.5%). 4 days after drug treatment, each well was added with 50 μl CellTiter-Glo solution which was previously thawed and equilibrated to room temperature, and mixed for 2 minutes with microplate shaker. After placing at room temperature for 10 minutes, luminescence value was measured by PerkinElmer Envision 2104 plate reader and the data was analyzed.
? tested samples ? Compounds of the examples.
? data analysis ? Luminescence value of DMSO solvent control (Vvehicle control, which is the mean luminescence value from DMSO solvent control group)
Tested luminescence value (Vsample, which is the luminescence value from given concentration of compounds group) Inhibition rate (%)=(1−Vsample/Vvehicle control)×100
as §8

T2 sequence (Q9UM73 19-1620 L1196M): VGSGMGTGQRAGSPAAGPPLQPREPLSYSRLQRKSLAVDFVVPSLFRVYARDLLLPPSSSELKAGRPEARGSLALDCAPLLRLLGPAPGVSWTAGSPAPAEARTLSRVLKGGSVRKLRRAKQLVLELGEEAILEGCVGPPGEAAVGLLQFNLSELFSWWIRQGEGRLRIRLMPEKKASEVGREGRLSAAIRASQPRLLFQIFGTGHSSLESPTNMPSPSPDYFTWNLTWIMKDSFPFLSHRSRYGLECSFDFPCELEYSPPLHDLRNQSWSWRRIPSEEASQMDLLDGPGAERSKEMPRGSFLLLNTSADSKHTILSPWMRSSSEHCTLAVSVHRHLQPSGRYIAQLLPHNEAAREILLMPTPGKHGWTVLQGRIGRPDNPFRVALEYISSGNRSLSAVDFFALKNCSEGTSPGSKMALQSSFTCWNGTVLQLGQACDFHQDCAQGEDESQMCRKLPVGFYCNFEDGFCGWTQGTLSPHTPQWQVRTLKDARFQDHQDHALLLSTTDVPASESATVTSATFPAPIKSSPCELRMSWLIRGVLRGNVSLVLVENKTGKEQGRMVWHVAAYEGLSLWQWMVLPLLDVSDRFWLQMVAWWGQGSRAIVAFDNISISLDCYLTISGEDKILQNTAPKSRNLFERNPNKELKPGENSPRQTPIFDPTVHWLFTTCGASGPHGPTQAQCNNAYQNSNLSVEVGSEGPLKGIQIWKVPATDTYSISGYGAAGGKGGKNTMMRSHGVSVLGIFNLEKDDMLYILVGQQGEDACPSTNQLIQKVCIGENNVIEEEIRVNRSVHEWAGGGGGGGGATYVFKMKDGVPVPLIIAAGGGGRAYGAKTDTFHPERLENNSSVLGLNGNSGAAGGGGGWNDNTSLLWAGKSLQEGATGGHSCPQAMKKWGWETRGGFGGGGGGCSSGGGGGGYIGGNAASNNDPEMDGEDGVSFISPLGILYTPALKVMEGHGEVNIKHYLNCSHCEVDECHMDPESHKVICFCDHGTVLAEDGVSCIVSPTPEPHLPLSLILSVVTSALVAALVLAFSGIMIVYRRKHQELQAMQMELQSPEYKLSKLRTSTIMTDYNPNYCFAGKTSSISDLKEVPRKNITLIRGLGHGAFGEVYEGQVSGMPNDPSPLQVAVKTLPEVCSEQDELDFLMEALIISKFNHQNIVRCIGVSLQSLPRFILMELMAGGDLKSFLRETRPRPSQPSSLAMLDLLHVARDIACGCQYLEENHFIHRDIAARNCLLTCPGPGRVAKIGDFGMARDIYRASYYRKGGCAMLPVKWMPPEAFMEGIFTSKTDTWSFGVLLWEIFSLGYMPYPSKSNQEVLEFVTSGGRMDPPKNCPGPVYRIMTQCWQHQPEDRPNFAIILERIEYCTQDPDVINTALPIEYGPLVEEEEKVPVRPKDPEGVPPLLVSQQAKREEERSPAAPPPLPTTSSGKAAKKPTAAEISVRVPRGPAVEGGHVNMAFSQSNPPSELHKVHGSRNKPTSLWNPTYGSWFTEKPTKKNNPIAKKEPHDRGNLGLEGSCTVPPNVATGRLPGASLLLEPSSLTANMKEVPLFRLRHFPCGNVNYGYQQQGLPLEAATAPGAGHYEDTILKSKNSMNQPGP
T1 sequence (Q9UM73 19-1620): as the sequence (Q9UM73 19-1620 L1196M) above, with M1178L counted along it

SMILES | IC50 [1] [nM] | IC50 [2] [nM] | IC50 [3] [nM]
Cc1cc(Nc2ncc(Cl)c(Nc3cn(C)nc3S(=O)(=O)C(C)C)n2)c(C(C)C)cc1C1CCN(C)CC1 [Final product 33] | 12 | 28 | 660
Cc1cc(Nc2ncc(Cl)c(Nc3cn(C)nc3S(=O)(=O)C3CCC3)n2)c(OC2CC2)cc1C1CCN(C)CC1 [Final product 52] | 2 | 15 | 76
Cc1cc(Nc2ncc(F)c(Nc3cn(C)nc3S(=O)(=O)C(C)C)n2)c(OC2CC2)cc1C1CCN(C)CC1 [Final product 70] | 2 | 18 | 81
Cc1cc(Nc2ncc(C)c(Nc3cn(C)nc3S(=O)(=O)C(C)C)n2)c(OC2CC2)cc1C1CCN(C)CC1 [Final product 72] | 1 | 6 | 69
Cc1nc(S(=O)(=O)C(C)C)c(Nc2nc(Nc3cc(C)c(C4CCN(C)CC4)cc3OC3CC3)ncc2Cl)s1 [Final product 113] | 6 | 22 | 150
Cc1cc(Nc2ncc(Cl)c(Nc3cn(C)nc3S(=O)(=O)C(C)C)n2)c(OC2CC2)cc1C1CCN(C(C)C)CC1 [Final product 123, 5-chloro-N^2-[2-cyclopropoxy-4-(1-isopropylpiperidin-4-yl)-5-methyl-phenyl]-N^4-[1-methyl-3-(isopropylsulfonyl)-1H-pyrazol-4-yl]-pyrimidin-2,4-diamine] | 2 | 5 | 
Cc1cc(Nc2ncc(Cl)c(Nc3cn(C)nc3S(=O)(=O)C(C)C)n2)c(OC2CC2)cc1C1CCN(C(=O)C(C)C)CC1 [Final product 163, 1-isobutyryl-4-(4-(5-chloro-4-(3-(isopropylsulfonyl)-1-methyl-1H-pyrazol-4-amino)pyrimidin-2-amine)-5-cyclopropoxy-2-methylphenyl)piperidine] | 26 | 29 | 149
CCN(CC)[C@H]1CC[C@@H](c2cc(OC3CC3)c(Nc3ncc(Cl)c(Nc4cn(C)nc4S(=O)(=O)C(C)C)n3)cc2C)CC1 [Final product 191] | 8 | 17 | 60
CCN(CC)[C@H]1CC[C@H](c2cc(OC3CC3)c(Nc3ncc(Cl)c(Nc4cn(C)nc4S(=O)(=O)C(C)C)n3)cc2C)CC1 [Final product 192] | 9 | 12 | 68
Cc1cc(Nc2ncc(Cl)c(Nc3cn(C)nc3S(=O)(=O)C(C)C)n2)c(OC2CC2)cc1[C@H]1CC[C@@H](NC(C)C)CC1 [Final product 197] |  |  | 72
Cc1cc(Nc2ncc(Cl)c(Nc3cn(C)nc3S(=O)(=O)C(C)C)n2)c(OC2CC2)cc1[C@H]1CC[C@@H](NCCN(C)C)CC1 [Final product 199] |  |  | 225
CC(=O)N1CCN([C@H]2CC[C@@H](c3cc(OC4CC4)c(Nc4ncc(Cl)c(Nc5cn(C)nc5S(=O)(=O)C(C)C)n4)cc3C)CC2)CC1 [Final product 203] |  |  | 189
Cc1cc(Nc2ncc(Cl)c(Nc3cn(C)nc3S(=O)(=O)C(C)C)n2)c(OC2CC2)cc1[C@H]1CC[C@H](NC(=O)C2CC2)CC1 [Final product 207, N-(4-(4-(5-chloro-4-(3-(isopropylsulfonyl)-1-methyl-1H-pyrazol-4-amine)pyrimidin-2-amine)-5-cyclopropoxy-2-methylphenyl)cyclohexyl) cyclopropyl carboxamide] |  |  | 154
Cc1cc(Nc2ncc(C(F)(F)F)c(Nc3cn(C)nc3S(=O)(=O)C(C)C)n2)c(OC2CC2)cc1C1CCN(C)CC1 [Final product 209, N^2-[2-cyclopropoxy-4-(1-methyl-piperidin-4-yl)-5-methylphenyl]-N^4-[1-methyl-3-(isopropylsulfonyl)-1H-pyrazol-4-yl]-5-(trifluoromethyl)pyrimidin-2,4-diamine] | 3 | 9 | 71

Now from value to molecule:

IC50 [1] [nM] | IC50 [2] [nM] | IC50 [3] [nM] | SMILES
2 | 5 | 48 | Cc1cc(Nc2ncc(Cl)c(Nc3cn(C)nc3S(=O)(=O)C(C)C)n2)c(OC2CC2)cc1C1CCN(C)C(C)C1 (stereo not shown) [Final product 92]
68 | 43 | 133 | Cc1cc(Nc2ncc(Cl)c(Nc3cn(C)nc3S(=O)(=O)CC(C)C)n2)c(OC(C)C)cc1C1CN(S(C)(=O)=O)C1 [Final product 169]
 |  | 78 | Cc1cc(Nc2ncc(Cl)c(Nc3cn(C)nc3S(=O)(=O)C(C)C)n2)c(OC2CC2)cc1[C@H]1CC[C@H](N(C)C(C)C)CC1 [Final product 194]
 |  | 116 | Cc1cc(Nc2ncc(Cl)c(Nc3cn(C)nc3S(=O)(=O)C(C)C)n2)c(OC2CC2)cc1[C@H]1CC[C@@H](NC2CC2)CC1 [Final product 195]
 |  | 210 | Cc1cc(Nc2ncc(Cl)c(Nc3cn(C)nc3S(=O)(=O)C(C)C)n2)c(OC2CC2)cc1[C@H]1CC[C@H](NCCN(C)C)CC1 [Final product 200]
 |  | 149 | Cc1cc(Nc2ncc(Cl)c(Nc3cn(C)nc3S(=O)(=O)C(C)C)n2)c(OC2CC2)cc1C1CCC(N2CCCC2)CC1 (stereo not shown) [Final product 201]

Source: patent US10023593B2, “ALK kinase inhibitor, and preparation method and uses thereof” (BEIJING PEARL BIOTECHNOLOGY LIMITED LIABILITY COMPANY, priority 2014, dated 2018)
